Data: the supplement of paper PMC11061612

Columns and labels:
[1] = system: BxPC-3 (Pancreatic Carcinoma); test: Bliss excess, mean over the matrix (fraction); higher = more synergy
Outline: (§1)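 After 24 hours at 37°C and 5% CO2 in 1536-well plates, cells in DMEM/F12 or RPMI plus 10% FBS received two-drug dose matrices for 72 hours. Viability came from CellTiter-Glo 2.0 luminescence and was scaled as inhibition, anchored at 0 by vehicle wells and at 1 by blank wells. Combination Emax is taken as the second-highest inhibition in the matrix, and Bliss excess as the observed combination effect less EA + EB − EA·EB, with EA and EB the single-agent effects.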

[2] = system: C-33-A (Cervical Carcinoma); test: as above
Outline: as §1

GAK (Melanoma) = test: as above
Outline: as §1

KALS-1 (Glioblastoma) = test: as above
Outline: as §1

[3] = system: KP-4 (Pancreatic Carcinoma); test: as above
Outline: as §1

[4] = system: LCLC-103H (Non-Small Cell Lung Carcinoma); test: as above
Outline: as §1

[5] = system: MDA-MB-415 (Breast Carcinoma); test: as above
Outline: as §1

[6] = system: MM1S (Plasma Cell Myeloma); test: as above
Outline: as §1

[7] = system: NAMALWA (Burkitt's Lymphoma); test: as above
Outline: as §1

NB1 (Neuroblastoma) [8] = test: as above
Outline: as §1

[9] = system: NCI-H1876 (Small Cell Lung Carcinoma); test: as above
Outline: as §1

[10] = system: NCI-H1963 (Small Cell Lung Carcinoma); test: as above
Outline: as §1

NCI-H2373 (Mesothelioma) = test: as above
Outline: as §1

[11] = system: P30-OHK (B-Lymphoblastic Leukemia); test: as above
Outline: as §1

[12] = system: SCC-4 (Oral Cavity Carcinoma); test: as above
Outline: as §1

[13] = system: SNU-423 (Hepatocellular Carcinoma); test: as above
Outline: as §1

[14] = system: ZR-75-30 (Breast Carcinoma); test: as above
Outline: as §1

[15] = system: LCLC-103H (Non-Small Cell Lung Carcinoma); test: combination Emax (second highest fraction inhibited in the dose matrix, 72 h); higher = more inhibition; extreme values may be limits of the assay
Outline: as §1

[16] = system: MONO-MAC-6 (Acute Myeloid Leukemia); test: as above
Outline: as §1

NB1 (Neuroblastoma) [17] = test: as above
Outline: as §1
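For Bliss excess, mean over the matrix in this document: after 72 h of two-drug dosing.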

| SMILES | Bliss excess [1] | Bliss excess [2] | Bliss excess (GAK (Melanoma)) | Bliss excess (KALS-1 (Glioblastoma)) | Bliss excess [3] | Bliss excess [4] | Bliss excess [5] | Bliss excess [6] | Bliss excess [7] | Bliss excess (NB1 (Neuroblastoma) [8]) | Bliss excess [9] | Bliss excess [10] | Bliss excess (NCI-H2373 (Mesothelioma)) | Bliss excess [11] | Bliss excess [12] | Bliss excess [13] | Bliss excess [14] | combination Emax [15] | combination Emax [16] | combination Emax (NB1 (Neuroblastoma) [17]) |
| --- | --- | --- | --- | --- | --- | --- | --- | --- | --- | --- | --- | --- | --- | --- | --- | --- | --- | --- | --- | --- |
| CN(C)CCCOc1ccc(-c2ccc3ncc4c(c3c2)n(C2CCOCC2)c(=O)n4C)cn1 [AZD0156] + C=CCn1c(=O)c2cnc(Nc3ccc(N4CCN(C)CC4)cc3)nc2n1-c1cccc(C(C)(C)O)n1 [AZD1775] (first compound max 1 µM, partner max 1 µM) | -0.0506 | -0.0461 | -0.0058 | 0.0014 | -0.0898 | -0.0079 | -0.0615 | -0.0653 | 0.0156 | -0.0109 | 0.0171 | -0.0147 | -0.0126 | 0.0179 | -0.0393 | -0.0554 | -0.0398 | 0.519 | 0.886 | 0.936 |
| CN(C)CCCOc1ccc(-c2ccc3ncc4c(c3c2)n(C2CCOCC2)c(=O)n4C)cn1 [AZD0156] + CCN(CCO)CCCOc1ccc2c(Nc3cc(CC(=O)Nc4cccc(F)c4)[nH]n3)ncnc2c1 [AZD2811] (first compound max 1 µM, 7x7, partner max 1 µM) | -0.0212 | -0.0142 | -0.0025 | -0.0245 | -0.0162 | -0.0395 | -0.0087 | 0.0135 | 0.0323 | -0.0137 | -0.0557 | -0.0463 | -0.0048 | -0.0439 | -0.0668 | -0.0192 | -0.0415 | 0.29 | 0.743 | 0.641 |
| CN(C)CCCOc1ccc(-c2ccc3ncc4c(c3c2)n(C2CCOCC2)c(=O)n4C)cn1 [AZD0156] + C[C@@H]1COCCN1C2=NC(=NC(=C2)C3(CC3)[S@](=N)(=O)C)C4=C5C=CNC5=NC=C4 [AZD6738] (first compound max 1 µM, 7x7, partner max 10 µM) | -0.0083 | 0.0157 | 0.0448 | -0.0032 | -0.0286 | -0.0352 | -0.007 | 0.0173 | 0.0342 | 0.0522 | 0.0226 | 0.0086 | -0.0065 | 0.0152 | -0.0071 | -0.0414 | -0.0305 | 0.55 | 0.858 | 0.933 |
| CN(C)CCCOc1ccc(-c2ccc3ncc4c(c3c2)n(C2CCOCC2)c(=O)n4C)cn1 [AZD0156] + O=C(c1cc(Cc2n[nH]c(=O)c3ccccc23)ccc1F)N1CCN(C(=O)C2CC2)CC1 [Olaparib] (first compound max 3 µM, partner max 3 µM) | -0.0342 | 0.0868 | 0.0131 | -0.0235 | 0.0711 | 0.0713 | 0.0017 | 0.0231 | 0.117 | -0.0721 | 0.103 |  | 0.0178 | 0.262 | 0.0057 | 0.0634 | -0.0203 | 0.289 | 0.461 | 0.357 |
| C=CCn1c(=O)c2cnc(Nc3ccc(N4CCN(C)CC4)cc3)nc2n1-c1cccc(C(C)(C)O)n1 [AZD1775] + C1CN(CCC1(C(=O)N[C@@H](CCO)C2=CC=C(C=C2)Cl)N)C3=NC=NC4=C3C=CN4 [Capivasertib] (first compound max 3 µM, partner max 3 µM) | -0.0227 | -0.0323 | -0.0395 | -0.0806 | -0.0806 | -0.0462 | 0.0043 | 0.0171 | 0.0603 | -0.0592 | -0.0304 |  | -0.0393 | 0.0697 | -0.0273 | -0.0333 | -0.0501 | 0.626 | 0.95 | 0.69 |
| C=CCn1c(=O)c2cnc(Nc3ccc(N4CCN(C)CC4)cc3)nc2n1-c1cccc(C(C)(C)O)n1 [AZD1775] + C[C@@H]1COCCN1C2=NC(=NC(=C2)C3(CC3)[S@](=N)(=O)C)C4=C5C=CNC5=NC=C4 [AZD6738] (first compound max 1 µM, partner max 10 µM) | -0.0161 | 0.0554 | 0.0196 | 0.0058 | 0.031 | 0.0108 | 0.0112 | -0.0128 | 0.0397 | -0.0161 | 0.0099 | 0.036 | 0.025 | 0.0928 | -0.0248 | -0.0095 | 0.0186 | 0.752 | 1 | 0.944 |
| C=CCn1c(=O)c2cnc(Nc3ccc(N4CCN(C)CC4)cc3)nc2n1-c1cccc(C(C)(C)O)n1 [AZD1775] + O=C(c1cc(Cc2n[nH]c(=O)c3ccccc23)ccc1F)N1CCN(C(=O)C2CC2)CC1 [Olaparib] (first compound max 1 µM, partner max 10 µM) | -0.0266 | 0.0051 | -0.0243 | -0.0611 | -0.0373 | -0.0334 | -0.0482 | -0.0321 | -0.0133 | -0.0795 | 0.0311 | -0.0252 | -0.013 | -0.0021 | -0.0341 | -0.0577 | -0.0461 | 0.546 | 0.942 | 0.819 |
| CCN(CCO)CCCOc1ccc2c(Nc3cc(CC(=O)Nc4cccc(F)c4)[nH]n3)ncnc2c1 [AZD2811] + C=CCn1c(=O)c2cnc(Nc3ccc(N4CCN(C)CC4)cc3)nc2n1-c1cccc(C(C)(C)O)n1 [AZD1775] (first compound max 1 µM, partner max 1 µM) | -0.0099 | 0.0111 | -0.0522 | -0.0307 | 0.0441 | 0.0066 | -0.0152 | 0.0048 | -0.0101 | -0.0433 | -0.0318 | -0.0448 | -0.0482 | -0.0412 | -0.0024 | -0.01 | -0.0422 | 0.546 | 0.958 | 0.869 |
| COc1nnc2ccc(N3CCC(c4ccc(OCCN5CCN(C)C(=O)[C@H]5C)cc4)CC3)nn12 [AZD5153] + CN(CC[C@H](CSC1=CC=CC=C1)NC2=C(C=C(C=C2)S(=O)(=O)NC(=O)C3=CC=C(C=C3)N4CCC(CC4)[C@H](C5=CC=CC=C5C6=CC=C(C=C6)Cl)O)S(=O)(=O)C(F)(F)F)CCO [AZD4320] (first compound max 1 µM, 7x7, partner max 1 µM) |  |  |  |  |  |  |  | 0.0694 |  | 0.0126 | 0.134 | 0.0696 | 0.0157 | -0.0062 |  |  |  |  |  | 0.248 |
| Cc1c2c(nn1C)CSCc1cc(n(C)n1)CSc1cc(c3ccccc3c1)OCCCc1c(C(=O)O)n(C)c3c-2c(Cl)ccc13 [AZD5991] + CCN(CCO)CCCOc1ccc2c(Nc3cc(CC(=O)Nc4cccc(F)c4)[nH]n3)ncnc2c1 [AZD2811] (first compound max 1 µM, 7x7, partner max 1 µM) | 0.0412 | -0.028 |  | -0.0294 | 0.0247 | -0.0421 | -0.108 | 0.134 | 0.089 | 0.0095 | 0.058 | -0.0088 | -0.0088 | -0.0342 | 0.0408 | -0.0322 | 0.0825 | 0.371 | 1 | 0.694 |
| CC(=O)c1c(C)c2cnc(Nc3ccc(N4CCNCC4)cn3)nc2n(C2CCCC2)c1=O [Palbociclib] + CN(CC[C@H](CSC1=CC=CC=C1)NC2=C(C=C(C=C2)S(=O)(=O)NC(=O)C3=CC=C(C=C3)N4CCC(CC4)[C@H](C5=CC=CC=C5C6=CC=C(C=C6)Cl)O)S(=O)(=O)C(F)(F)F)CCO [AZD4320] (first compound max 10 µM, 7x7, partner max 1 µM) |  |  |  |  |  |  |  | -0.0634 |  | -0.0677 | -0.0286 | 0.0164 | -0.0794 | 0.0564 |  |  |  |  |  | 0.597 |
| CCc1c2c(nc3ccc(O)cc13)-c1cc3c(c(=O)n1C2)COC(=O)[C@]3(O)CC [SN-38] + O=C(c1cc(Cc2n[nH]c(=O)c3ccccc23)ccc1F)N1CCN(C(=O)C2CC2)CC1 [Olaparib] (first compound max 0.3 µM, 7x7, partner max 10 µM) | -0.005 | 0.0577 | 0.0227 | 0.069 | 0.0777 | 0.0352 | 0.026 |  | 0.0571 |  |  | 0.099 | -0.0716 | 0.0708 | 0.0071 | -0.0025 | -0.0169 | 0.54 | 1 |  |
| C[C@@H](c1ccc2nccn2c1)n1nnc2ncc(-c3cnn(C)c3)nc21 [Savolitinib] + CN(CC[C@H](CSC1=CC=CC=C1)NC2=C(C=C(C=C2)S(=O)(=O)NC(=O)C3=CC=C(C=C3)N4CCC(CC4)[C@H](C5=CC=CC=C5C6=CC=C(C=C6)Cl)O)S(=O)(=O)C(F)(F)F)CCO [AZD4320] (first compound max 1 µM, 7x7, partner max 1 µM) |  |  |  |  |  |  |  | -0.034 |  | -0.0318 | -0.0256 | 0.0022 | -0.0681 | -0.0183 |  |  |  |  |  | 0.159 |
